Key:
[1] = Inhibition of RML prion protein infected in mouse dividing ScN2a-cl3 cells expressing full length mouse PrP assessed as reduction of PrPsc level after 5 days by Western blotting analysis; format: cell-based; conditions: N2a-cl3, 120 h
[2] = cells; format: cell-based; conditions: Mus musculus, N2a-cl3, 120 h
[3] = in vitro; conditions: mouse, dividing ScN2a-cl3 cells
[4] = system: N2a-cl3; assay: Inhibition of RML prion protein infected in mouse dividing ScN2a-cl3 cells expressing full length mouse PrP assessed as reduction of PrPsc level at 10 uM after 5 days by ELISA; format: cell-based
[5] = system: N2a-cl3; assay: Inhibition of RML prion protein infected in mouse stationary-phase ScN2a-cl3 cells expressing full length mouse PrP assessed as reduction of PrPsc level at 10 uM after 5 days by ELISA; format: cell-based
[6] = Ratio of AUClast in FVB mouse brain to FVB mouse plasma; format: ADME; conditions: read-out: Ratio AUC
[7] = AUClast in FVB mouse plasma at 10 mg/kg, po qd; format: ADME, organism-based; design: time 0 - last, dose 10 mg/kg, route oral
[8] = AUClast in FVB mouse brain at 10 mg/kg, po qd; format: ADME, organism-based; design: time 0 - last, dose 10 mg/kg, route oral
[9] = Cmax in FVB mouse plasma at 10 mg/kg, po qd; format: ADME, organism-based; design: dose 10 mg/kg, route oral
[10] = Cytotoxicity against mouse stationary-phase ScN2a-cl3 cells assessed as cell viability after 5 days by calcein-AM staining-based fluorescence assay; design: species or system N2a-cl3; conditions: read-out: LC50
[11] = Inhibition of RML prion protein infected in mouse stationary-phase ScN2a-cl3 cells expressing full length mouse PrP assessed as reduction of PrPsc level after 5 days; format: cell-based; conditions: N2a-cl3, 120 h

| SMILES | EC50 [1] | EC50 [2] | inhibition [4] | inhibition [5] | further results |
| --- | --- | --- | --- | --- | --- |
| O=C(Nc1nc(-c2ccc(-c3ccccc3)cc2)cs1)C1CC1 | 190 nM | 250 nM | – | – | – |
| COc1ccc(-c2ccc3c(N)c(C(=O)Nc4cc(OC)c(OC)c(OC)c4)sc3n2)cc1 | – | 420 nM | – | – | CC50 at 120 h [3]: > 10000 nM |
| CC(=O)c1ccc(N2CCN(Cc3ccc(Br)s3)CC2)cc1 | – | – | 97% | 34% | – |
| COc1ccc(-c2ccc3c(N)c(C(=O)Nc4ccc(F)cc4)sc3n2)cc1 | – | 140 nM | – | – | CC50 at 120 h [3]: > 10000 nM |
| CC(=O)c1ccc(N2CCN(CC(C)CCC=C(C)C)CC2)cc1 (stereo not drawn) | – | – | 78% | 55% | – |
| COc1cccc(Nc2nc(N)c3ccccc3n2)c1 | 5990 nM | 4020 nM | – | – | – |
| CC(=O)c1ccc(N2CCN(Cc3cccc(Br)c3)CC2)cc1 | – | – | 67% | 39% | – |
| CC(=O)c1ccc(N2CCN(Cc3cccc(Cl)c3)CC2)cc1 | – | – | 84% | 31% | – |
| COc1ccc(-c2ccc3c(N)c(C(=O)Nc4ccc(OC)c(OC)c4)sc3n2)cc1 | – | > 10000 nM | – | – | CC50 at 120 h [3]: > 10000 nM |
| CC(=O)c1ccc(N2CCN(Cc3ccc(F)cc3F)CC2)cc1 | – | – | 85% | 30% | – |
| N#Cc1sc2nc(-c3ccc4c(c3)OCO4)ccc2c1N | 520 nM | 980 nM | – | – | Kp [6]: 4.72; AUC(0-t) [7]: 1.56 µM·h; AUC(0-t) [8]: 7.36 µM·h; Cmax [9]: 130 nM |
| COc1ccc(CN2CCN(c3ccc(C(C)=O)cc3)CC2)c(C)c1C | – | – | 95% | 41% | – |
| CCOc1ccc(NC(=O)c2cc3ccccc3cc2O)cc1 | 40 nM | 130 nM | – | – | – |
| CC(=O)c1ccc(N2CCN(Cc3ccccc3Cl)CC2)cc1 | – | – | 86% | 41% | – |
| O=C(Nc1ccc(Cl)c(Cl)c1)NC(CC(=O)c1ccc([N+](=O)[O-])cc1)C(Cl)(Cl)Cl (stereo not drawn) | – | – | 83% | 61% | – |
| COc1cc(CN2CCN(c3cccc(C)c3C)CC2)cc(Br)c1O | – | – | 22% | 48% | – |
| c1cncc(-c2nc(-c3c[nH]c4ccccc34)cs2)c1 | 830 nM | 270 nM | – | – | – |
| CNCCc1c(-c2ccccc2)n(-c2ccccc2)c2ccccc12 | – | – | 81% | 46% | – |
| Cc1ccc2[nH]c3c(c2c1)CCCC3NC1CCCCC1 (stereo not drawn) | – | – | 27% | 48% | – |
| Nc1c(C(=O)Nc2cc(F)ccc2F)sc2nc(-c3ccncc3)ccc12 | – | 2220 nM | – | – | CC50 at 120 h [3]: > 10000 nM |
| Cn1c(=N)n(CC(=O)c2ccc(Cl)cc2)c2ccccc21 | 4970 nM | 7320 nM | – | – | – |
| c1ccc2cc(-c3cn4ccsc4n3)ccc2c1 | 2490 nM | 6020 nM | – | – | – |
| COc1ccc(-c2nc3cc(NC(=O)c4ccc(OCc5ccccc5)cc4)ccc3o2)cc1 | 2570 nM | 70 nM | – | – | – |
| CCc1ccc(-c2cn3cc(C)sc3n2)cc1 | 520 nM | 1780 nM | – | – | – |

| SMILES | EC50 [1] | EC50 [2] | inhibition [4] | inhibition [5] | further results |
| --- | --- | --- | --- | --- | --- |
| O=C(Nc1ccc(Cl)cc1)Nc1ccc(Cl)c(F)c1 | – | – | 25% | 66% | – |
| CN1CCc2cccc3c2[C@H]1Cc1ccc(O)c(O)c1-3 [APOMORPHINE] | – | > 10000 nM | – | – | CC50 at 120 h [3]: > 10000 nM |
| Clc1ccc(N2CCN(C3CCSC3)CC2)cc1 (stereo not drawn) | – | – | 42% | 51% | – |
| CC(=O)c1ccc(N2CCN(Cc3cccnc3)CC2)cc1 | 890 nM | – | – | – | – |
| CN(C)CCNc1nc(-c2ccc(Cl)cc2)nc2ccccc12 | 2010 nM | 2650 nM | – | – | – |
| O=C(Nc1ccccc1)Nc1ccc(F)c(Cl)c1 | – | – | 87% | 56% | – |
| COc1ccc(CNC(=O)c2sc3nc(-c4cccs4)ccc3c2N)cc1 | – | 1830 nM | – | – | CC50 at 120 h [3]: > 10000 nM |
| CC(=O)c1ccc(NC(=O)c2sc3nc4c(cc3c2N)CCCC4)cc1 | – | > 10000 nM | – | – | CC50 at 120 h [3]: > 10000 nM |
| O=C(Nc1nc(-c2ccc3ccccc3c2)cs1)C1CC1 | 570 nM | 990 nM | – | – | – |
| COc1ccc2[nH]c3c(OC)ncnc3c2c1 | – | – | 81% | 37% | – |
| COc1ccc(-c2ccc3c(N)c(C(=O)Nc4ccc(SC)cc4)sc3n2)cc1 | – | 290 nM | – | – | CC50 at 120 h [3]: > 10000 nM |
| COc1ccc2cc3c(N)c(C(=O)Nc4ccc(C(C)=O)cc4)sc3nc2c1 | 60 nM | 80 nM | – | – | CC50 at 120 h [3]: > 10000 nM |
| COc1ccc(C(=O)Nc2ccc(-c3csc(C)n3)cc2)cc1 | 160 nM | 400 nM | – | – | – |
| O=C(Nc1ccc(Cl)cc1)Nc1ccc(C(F)(F)F)cc1Cl | – | – | 17% | 63% | – |
| CCN1CCN(c2ccc(Nc3ccnc4cc5ccccc5cc34)cc2)CC1 | – | – | 76% | 51% | – |
| Cc1ccc2[nH]c3c(c2c1)CCCC3NCC12CC3CC(CC(C3)C1)C2 (stereo not drawn) | – | – | 98% | 53% | – |
| COc1ccccc1OCCNCC(O)COc1cccc2[nH]c3ccccc3c12 (stereo not drawn) [CARVEDILOL] | – | 2280 nM | – | – | – |
| CC(=O)c1ccc(N2CCN(Cc3c(C)n(C)n(-c4ccccc4)c3=O)CC2)cc1 | – | – | 64% | 35% | – |
| Nc1c(C(=O)Nc2ccc(F)cc2)sc2nc(-c3ccc4c(c3)OCO4)ccc12 | – | 750 nM | – | – | CC50 at 120 h [3]: > 10000 nM |
| O=C(Nc1ccc(F)c(Cl)c1)Nc1ccc(Cl)c(Cl)c1 | – | – | 92% | 61% | – |
| Cc1ccc2c(c1)c1c(n2CC(O)CO)C(=O)CCC1 (stereo not drawn) | – | – | 14% | 39% | – |
| N#Cc1ccc(/C=C/c2ccc(F)cc2)cc1 | 530 nM | 1520 nM | – | – | – |
| CCc1ccc(-c2cn3ccccc3n2)cc1 | 4720 nM | 9160 nM | – | – | – |
| COc1ccc(-c2ccc3c(N)c(C(=O)Nc4ccc(F)cc4)sc3n2)cc1OC | – | 240 nM | – | – | CC50 at 120 h [3]: > 10000 nM |

| SMILES | EC50 [1] | EC50 [2] | inhibition [4] | inhibition [5] | further results |
| --- | --- | --- | --- | --- | --- |
| Cn1c(=N)n(CC(=O)c2ccc(Br)cc2)c2ccccc21 | 1450 nM | 2580 nM | – | – | – |
| CC(=O)c1ccc(N2CCN(Cc3ccccc3)CC2)cc1 | 620 nM | 710 nM | – | – | – |
| COc1cc(CNCCO)cc(Br)c1OCc1ccccc1Cl | 2740 nM | 4830 nM | – | – | – |
| CC(=O)c1ccc(NC(=O)c2sc3nc(-c4cccs4)ccc3c2N)cc1 | – | 100 nM | – | – | CC50 at 120 h [3]: > 10000 nM |
| COc1ccc(-c2cc(-c3ccc(OC)cc3O)[nH]n2)cc1 | 100 nM | 70 nM | – | – | – |
| O=C(Nc1ccc(Br)cc1)Nc1cc(Cl)cc(Cl)c1 | – | – | 91% | 51% | – |
| CN1C[C@H](C(=O)N[C@]2(C)O[C@@]3(O)[C@@H]4CCCN4C(=O)[C@H](Cc4ccccc4)N3C2=O)C[C@@H]2c3cccc4[nH]cc(c34)C[C@H]21 [DIHYDROERGOTAMINE] | – | 6440 nM | – | – | CC50 at 120 h [3]: > 10000 nM |
| COc1cc(N)c(-c2ccc3cc(OC)c(OC)cc3n2)cc1OC | 1830 nM | 2560 nM | – | – | – |
| OCCNCc1cc(Br)ccc1OCc1ccc(Cl)cc1Cl | 1990 nM | 4300 nM | – | – | – |
| Nc1c(C(=O)Nc2ccc3c(c2)OCCO3)sc2nc(-c3cccs3)ccc12 | – | 420 nM | – | – | CC50 at 120 h [3]: > 10000 nM |
| CCc1ccc(-c2cn3cc(C)ccc3n2)cc1 | 290 nM | 710 nM | – | – | – |
| Oc1ccc(/C=C/c2cc(O)cc(O)c2)cc1 [RESVERATROL] | 580 nM | 3060 nM | – | – | – |
| CCOc1ccc(C(=O)Nc2ccc3oc(-c4ccc(OC)cc4)nc3c2)cc1 | 130 nM | 60 nM | – | – | – |
| COc1ccc(CCNC(=O)c2sc3nc(-c4cccs4)ccc3c2N)cc1OC | – | > 10000 nM | – | – | CC50 at 120 h [3]: > 10000 nM |
| COc1ccc(-c2cc(-c3ccc(C)cc3O)[nH]n2)cc1 | 120 nM | 260 nM | – | – | – |
| CN1CCN(c2ccc(Nc3ccnc4cc(Cl)ccc34)cc2)CC1 | 2070 nM | 1360 nM | – | – | Kp [6]: 2.59; AUC(0-t) [7]: 0.82 µM·h; AUC(0-t) [8]: 2.12 µM·h; Cmax [9]: 410 nM |
| CC(=O)c1ccc2c(c1)N(CCCN(C)C)c1ccccc1S2 [ACEPROMAZINE] | – | 6930 nM | – | – | CC50 at 120 h [3]: > 10000 nM |
| COc1ccc2cc1Oc1ccc(cc1)C[C@H]1c3cc(c(OC)cc3CCN1C)Oc1c(OC)c(OC)cc3c1[C@H](C2)N(C)CC3 [FANCHININ] | – | 2150 nM | – | – | CC50 at 120 h [3]: 5010 nM |
| Cc1ccc2[nH]c3c(c2c1)CCCC3NCCCN(C)C (stereo not drawn) | – | 1580 nM | 88% | 94% | CC50 at 120 h [3]: > 10000 nM; CC50 at 120 h [10]: > 10000 nM; EC50 [11]: 7500 nM |
| Cc1[nH]c2ccccc2c1-c1csc(-c2cccnc2)n1 | 1700 nM | 3130 nM | – | – | – |
| CCOc1ccc(/N=N/c2ccc(N)cc2N)cc1 [ETHOXAZENE] | – | 4760 nM | – | – | CC50 at 120 h [3]: > 10000 nM |
| Nc1c(/N=N/c2ccc(-c3ccc(/N=N/c4cc(S(=O)(=O)O)c5ccccc5c4N)cc3)cc2)cc(S(=O)(=O)O)c2ccccc12 [CONGO RED] | – | 450 nM | – | – | CC50 at 120 h [3]: > 10000 nM |
| COc1ccc(-c2ccc3c(N)c(C(=O)Nc4cc(F)ccc4F)sc3n2)cc1 | – | > 10000 nM | – | – | CC50 at 120 h [3]: > 10000 nM |

— ChEMBL document CHEMBL3091297, “Antiprion compounds that reduce PrP(Sc) levels in dividing and stationary-phase cells” (Bioorg Med Chem, 2013)
